Our source for the IC50 and Ratio IC50 values is ChEMBL document CHEMBL1153503, “Design and synthesis of novel nitrogen-containing polyhydroxylated aromatics as HIV-1 integrase inhibitors from caffeic acid phenethyl ester” (Bioorg Med Chem Lett, 2009).

In assay [1] the target is T1, Human immunodeficiency virus type 1 integrase (Human immunodeficiency virus 1, UniProt Q7ZJM1). The experiment in a line: Inhibition of HIV1 integrase assessed as inhibition of strand transfer activity by 32P-labelled assay.
T1 sequence (Q7ZJM1 whole entry): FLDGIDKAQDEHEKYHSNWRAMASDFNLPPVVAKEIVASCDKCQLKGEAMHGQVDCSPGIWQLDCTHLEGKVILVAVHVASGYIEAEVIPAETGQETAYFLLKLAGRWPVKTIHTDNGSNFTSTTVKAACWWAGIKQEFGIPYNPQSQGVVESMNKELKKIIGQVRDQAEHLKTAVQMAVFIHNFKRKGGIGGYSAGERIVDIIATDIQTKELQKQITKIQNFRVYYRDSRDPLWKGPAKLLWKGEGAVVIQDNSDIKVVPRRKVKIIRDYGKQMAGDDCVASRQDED
Assay [2] concerns the target T1, Human immunodeficiency virus type 1 integrase.
Description: Inhibition of HIV1 integrase assessed as inhibition of 3'-end processing by 32P-labelled assay
Assay [3] deals with Human immunodeficiency virus type 1 integrase (Human immunodeficiency virus 1) (UniProt Q7ZJM1). The experiment in a line: Selectivity index, ratio of IC50 for HIV1 integrase 3'-end processing to IC50 for HIV1 integrase strand transfer activity.
Chain of Human immunodeficiency virus type 1 integrase (Human immunodeficiency virus 1) (Q7ZJM1 as listed by the source): as the sequence (Q7ZJM1 whole entry) above

pIC50: −log10 of the molar value. Where only a bound is given, the exact number is not on record here.

With `O=C(Nc1ccc(S(=O)(=O)Nc2ccc(Cl)c(Cl)c2)cc1)c1cc(O)c(O)c(O)c1`, the pIC50 in assay [1] was 5.77; in assay [2], 5.30.
In the same order, the values of `O=C(Nc1ccc(S(=O)(=O)Nc2ccc(F)cc2)cc1)c1cc(O)c(O)c(O)c1` are 6.05 and 5.15.
In the same order, the values of `O=C(Nc1ccc(S(=O)(=O)NCc2ccc(F)cc2)cc1)c1cc(O)c(O)c(O)c1` are 5.70 and 5.15.
For `O=C(Nc1ccc(S(=O)(=O)Nc2cccc(Br)c2)cc1)c1cc(O)c(O)c(O)c1`, in that order: 6.15 and 5.70.
As to `O=C(Nc1ccc(S(=O)(=O)NCc2ccc(Cl)cc2)cc1)c1cc(O)c(O)c(O)c1`, the pIC50 in assay [1] was 5.70; in assay [2], 5.30.
In the same order, the values of `Cc1ccccc1NS(=O)(=O)c1ccc(NC(=O)c2cc(O)c(O)c(O)c2)cc1` are 5.70 and 5.15.
As to `CCCCc1ccc(NS(=O)(=O)c2ccc(NC(=O)c3cc(O)c(O)c(O)c3)cc2)cc1`, the figures for the pIC50 in assay [1] and in assay [2] were 5.60 and 5.52, respectively.
As to `COc1ccc(NS(=O)(=O)c2ccc(NC(=O)c3cc(O)c(O)c(O)c3)cc2)cc1`, the negative logarithm of the IC50 (pIC50) was 5.35 in assay [1] and 5.30 in assay [2].
In the case of `O=C(Nc1ccc(S(=O)(=O)Nc2ccccc2)cc1)c1cc(O)c(O)c(O)c1`, the results for the pIC50 in assay [1] and in assay [2] were 5.82 and 5.15, respectively.
For `Cc1cc(C)cc(NS(=O)(=O)c2ccc(NC(=O)c3cc(O)c(O)c(O)c3)cc2)c1`, in that order: 5.60 and 5.10.
For `CCOc1ccc(NS(=O)(=O)c2ccc(NC(=O)c3cc(O)c(O)c(O)c3)cc2)cc1`, in that order: 5.89 and 5.22.
As for `O=C(Nc1ccc(S(=O)(=O)Nc2ccc(F)c(F)c2)cc1)c1cc(O)c(O)c(O)c1`, the negative logarithm of the IC50 (pIC50) is 5.82 in assay [1] and 5.40 in assay [2].
In the same order, the values of `O=C(Nc1ccc(S(=O)(=O)Nc2ccc(Br)cc2)cc1)c1cc(O)c(O)c(O)c1` are 6.15 and 5.52.
For `O=C(Nc1ccc(S(=O)(=O)Nc2ccc(F)c(F)c2F)cc1)c1cc(O)c(O)c(O)c1`, in that order: 5.52 and 5.15.
With `Cc1ccc(NS(=O)(=O)c2ccc(NC(=O)c3cc(O)c(O)c(O)c3)cc2)cc1C`, the pIC50 in assay [1] and in assay [2] was 5.10 each time.
In the case of `CC(=O)Oc1cc(C(=O)Nc2ccc(S(=O)(=O)Nc3ccccc3C)cc2)cc(OC(C)=O)c1OC(C)=O`, the negative-log IC50 (pIC50) is 5.80 in assay [1] and less than 5.00 in assay [2].
As for `O=C(Nc1ccc(S(=O)(=O)Nc2ccc(Cl)cc2)cc1)c1cc(O)c(O)c(O)c1`, the figures for the pIC50 in assay [1] and in assay [2] were 5.70 and 5.22, respectively.
For `O=C(/C=C/c1ccc(O)c(O)c1)Nc1ccc(S(=O)(=O)Nc2ccccc2)cc1`, in that order: 4.92 and 4.80.
For `CC(=O)Oc1cc(C(=O)Nc2ccc(S(=O)(=O)Nc3ccccc3)cc2)cc(OC(C)=O)c1OC(C)=O`, in that order: 5.80 and 5.10.
In the same order, the values of `O=C(Nc1ccc(S(=O)(=O)Nc2ccccc2)cc1)c1ccc(O)c(O)c1` are 4.30 and 4.00.
`O=C(Nc1ccc(S(=O)(=O)Nc2ccc([N+](=O)[O-])cc2)cc1)c1cc(O)c(O)c(O)c1`: the figures for the pIC50 in assay [1] and in assay [2] were 5.52 and 5.40, respectively.
On to `NS(=O)(=O)c1ccc(NC(=O)c2cc(O)c(O)c(O)c2)cc1`, for which the values for the negative logarithm of the IC50 (pIC50) in assay [1] and in assay [2] were 5.70 and 4.66, respectively. Further, the Ratio IC50 in assay [3] amounted to 11.
